From ChEMBL document CHEMBL5046245, “Identification of Pyruvate Carboxylase as the Cellular Target of Natural Bibenzyls with Potent Anticancer Activity against Hepatocellular Carcinoma via Metabolic Reprogramming” (J Med Chem, 2022)
Calls of active or inactive are those of the source. The rule behind the calls is not given here.

Columns and labels:
HepG2 [1] = assay: Cytotoxicity against human HepG2 cells assessed as cell viability at 1 to 4 nM incubated for 2 hrs by MTT assay; type: functional, cell-based; settings: dose 1-4 nM
HepG2 [2] = assay: Cytotoxicity against human HepG2 cells assessed as cell viability at 8 nM incubated for 48 hrs by MTT assay; type: functional, cell-based
[3] = Antiproliferative activity against human HCCLM3 cells assessed as inhibition of cell growth measured after 48 hrs by MTT assay; type: functional, cell-based; settings: HCCLM3, 48 h
[4] = Inhibition of pyruvate carboxylase in human HCCLM3 cell lysate measured upto 24 hrs by PC assay kit; type: subcellular
HepG2 [5] = assay: Antiproliferative activity against human HepG2 cells assessed as inhibition of cell growth measured after 48 hrs by MTT assay; type: functional, cell-based; settings: HepG2, 48 h
[6] = Inhibition of pyruvate carboxylase in human HCCLM3 cells measured upto 24 hrs by PC assay kit; type: cell-based
[7] = Inhibition of pyruvate carboxylase in human HepG2 cell lysate measured upto 24 hrs by PC assay kit; type: subcellular
[8] = Inhibition of pyruvate carboxylase in human HepG2 cells measured upto 24 hrs by PC assay kit; type: cell-based
HepG2 [9] = assay: Competitive inhibition of recombinant pyruvate carboxylase in human HepG2 cell lysate in presence of Erianin at 20 uM for 120 mins followed by irradiation of 365 nm UV light for 15 min by Native -PAGE analysis; type: subcellular
[10] = Competitive inhibition of pyruvate carboxylase (unknown origin) assessed as inhibition constant at varying concentrations of ATP; parameters: species or system Homo sapiens
[11] = Non-competitive inhibition of pyruvate carboxylase (unknown origin); parameters: species or system Homo sapiens
HepG2 [12] = assay: Cytotoxicity against human HepG2 cells assessed as cell viability at 62.5 to 250 nM preincubated for 48 hrs by MTT assay; type: functional, cell-based; settings: dose 62.5-250 nM

Structure (SMILES)	IC50 [4] [µM]	IC50 (HepG2 [5]) [µM]	IC50 [3] [µM]	other results
COc1ccc(CCc2cc(OC)c(OC)c(OC)c2OCCOC(=O)CCCCCNC(=O)CCCC[C@@H]2SC[C@@H]3NC(=O)N[C@@H]32)cc1O	–	–	–	Activity (HepG2 [1]): inactive
COc1ccc(CC(CCNC(=O)[C@H](CCCCNC(=O)CCCC[C@@H]2SC[C@@H]3NC(=O)N[C@@H]32)NC(=O)c2ccc(N=[N+]=[N-])cc2)c2cc(OC)c(OC)c(OC)c2)cc1O (some centres not stated)	–	–	–	Activity (HepG2 [2]): inactive
COc1cc(O)cc2c1-c1c(O)cc(O)cc1C[C@@H]2O	> 50	> 100	> 100	–
COc1ccc(CC(CCNC(=O)[C@H](CCCCNC(=O)CCC2(C)N=N2)N=[N+]=[N-])c2cc(OC)c(OC)c(OC)c2)cc1O (some centres not stated)	–	–	–	inhibition (HepG2 [9]): Active
COc1cc(O)cc(CCc2ccc(O)c(OC)c2)c1 [GIGANTOL]	0.125	1.88	57.9	IC50 [6]: > 50 µM
N[C@@H](CC(=O)O)C(=O)O [ASPARTIC ACID]	–	–	–	Ki [10]: 0.7 µM
COc1ccc(CC(CCNC(=O)COCCOCCOCCNC(=O)[C@H](CCCCNC(=O)CCCC[C@@H]2SC[C@@H]3NC(=O)N[C@@H]32)NC(=O)c2ccc(N=[N+]=[N-])cc2)c2cc(OC)c(OC)c(OC)c2)cc1O (some centres not stated)	–	–	–	Activity (HepG2 [2]): inactive
COc1ccc(CC(CCNC(=O)[C@H](CCCCNC(=O)CCC2(C)N=N2)NC(=O)CCCC[C@@H]2SC[C@@H]3NC(=O)N[C@@H]32)c2cc(OC)c(OC)c(OC)c2)cc1O (some centres not stated)	–	–	–	Activity (HepG2 [2]): inactive
COc1ccc(CC(CCNC(=O)[C@H](CCCCNC(=O)CCCC[C@@H]2SC[C@@H]3NC(=O)N[C@@H]32)NC(=O)CCC2(C)N=N2)c2cc(OC)c(OC)c(OC)c2)cc1O (some centres not stated)	–	–	–	Activity (HepG2 [2]): inactive
COc1ccc(CC(CCOC(=O)CCCCCNC(=O)CCCC[C@@H]2SC[C@@H]3NC(=O)N[C@@H]32)c2cc(OC)c(OC)c(OC)c2)cc1O (some centres not stated)	–	–	–	Activity (HepG2 [1]): inactive
CCCCCCCCOC(=O)c1cc(O)c(O)c(O)c1 [OCTYL_GALLATE]	–	–	–	Ki [11]: 0.7 µM
COc1ccc(CC(CCO)c2cc(OC)c(OC)c(OC)c2)cc1O (configuration not stated)	–	–	–	Activity (HepG2 [12]): Active; Activity (HepG2 [2]): inactive
COc1ccc(CC(CCNC(=O)[C@H](CCCCNC(=O)c2ccc(N=[N+]=[N-])cc2)NC(=O)CCCC[C@@H]2SC[C@@H]3NC(=O)N[C@@H]32)c2cc(OC)c(OC)c(OC)c2)cc1O (some centres not stated)	–	–	–	Activity (HepG2 [2]): inactive
COc1ccc(CC(CCNC(=O)CNC(=O)[C@H](CCCCNC(=O)CCCC[C@@H]2SC[C@@H]3NC(=O)N[C@@H]32)NC(=O)c2ccc(N=[N+]=[N-])cc2)c2cc(OC)c(OC)c(OC)c2)cc1O (some centres not stated)	–	–	–	Activity (HepG2 [2]): inactive
COc1cc(O)cc2c1-c1c(O)cccc1[C@@H](O)C2	0.264	2.58	> 100	IC50 [6]: 0.047 µM
Nc1ncnc2c1ncn2[C@@H]1O[C@@H]2CO[P@@](=O)(O)O[C@H]3[C@@H](O)[C@H](n4cnc5c(N)ncnc54)O[C@@H]3CO[P@@](=O)(O)O[C@H]2[C@H]1O	–	–	–	Ki [11]: 0.7 µM
COc1ccc(CC(CCNC(=O)COCCOCCOCCNC(=O)[C@H](CCCCNC(=O)CCCC[C@@H]2SC[C@@H]3NC(=O)N[C@@H]32)NC(=O)CCC2(C)N=N2)c2cc(OC)c(OC)c(OC)c2)cc1O (some centres not stated)	–	–	–	Activity (HepG2 [2]): inactive
COc1ccc(CC(O)c2cc(OC)c(OC)c(OC)c2)cc1O (configuration not stated)	–	–	–	Activity (HepG2 [12]): Active

Second part, led by results:

IC50 [4] [µM]	IC50 (HepG2 [5]) [µM]	Structure (SMILES)	IC50 [3] [µM]	other results
> 50	> 100	COc1cc(O)cc2c1-c1c(O)cccc1CC2 [HIRCINOL]	> 100	–
0.0888	–	O=C(O)CC(=O)C(=O)O [OXALOACETATE]	–	IC50 [6]: 0.1 µM; IC50 [7]: 0.0888 µM; IC50 [8]: 0.1 µM
> 50	> 100	COc1cc(O)cc2c1-c1c(O)cccc1C[C@@H]2O	> 100	–
0.065	2.66	COc1cc(O[C@@H]2O[C@H](CO)[C@@H](O)[C@H](O)[C@H]2O)cc2ccc3cccc(O)c3c12	29.9	IC50 [6]: 0.097 µM
> 50	> 100	COc1cc(O)cc(CCc2ccc(OC)c(O)c2)c1	> 100	–
> 50	1.09	COc1cc(CCc2cc(O)c(OC)c(OC)c2)ccc1O	> 100	–
0.191	3.02	COc1cc(CCc2cc(OC)c(O)c(OC)c2)ccc1O [MOSCATILIN]	2.09	IC50 [6]: 0.034 µM
0.204	1.74	COc1cc(O)c2c(c1)CCc1cccc(O)c1-2	8.54	IC50 [6]: 0.104 µM
> 50	> 100	COc1cc(O[C@@H]2O[C@H](CO)[C@@H](O)[C@H](O)[C@H]2O)cc2c1-c1c(O)cccc1[C@H](O)C2	> 100	–
> 50	> 100	COc1cc(O)cc2c1-c1c(O)cc(O)cc1[C@@H](O)C2	> 100	–
> 50	> 6.42	OC[C@H]1O[C@@H](Oc2cccc3c2-c2c(O)cc(O)cc2C[C@H]3O)[C@H](O)[C@@H](O)[C@@H]1O	> 100	–
> 50	> 100	COc1ccc(/C=C/c2cc(O)cc(O[C@@H]3O[C@H](CO)[C@@H](O)[C@H](O)[C@H]3O)c2)cc1O [RHAPONTIN]	> 100	–
